Assay results taken from article PMC3949122 (Current biology : CB, 2014).
Where two headings read alike, the source gives them in different places. Where no end group is shown, it is not given here.

Assays:
TRPA1 [1] = details: cited from earlier work; for activation of TRPA1 via covalent modification: ref [40]-[44]; for activation of TRPA1 by allosteric modulators: interact with transmembrane domains, not the intracellular C-terminus, ref [41], [45], [46]
TRPA1 [2] = target: TRPA1 (Homo sapiens, UniProt O75762); type: cell-based; details: alanine scanning of t-ProTx-I; label = residue mutated to Ala
NaV1.2 = type: cell-based; details: membrane-tethered, co-expressed; voltage-induced currents

TRPA1 (Homo sapiens, UniProt O75762), sequence (O75762 whole entry): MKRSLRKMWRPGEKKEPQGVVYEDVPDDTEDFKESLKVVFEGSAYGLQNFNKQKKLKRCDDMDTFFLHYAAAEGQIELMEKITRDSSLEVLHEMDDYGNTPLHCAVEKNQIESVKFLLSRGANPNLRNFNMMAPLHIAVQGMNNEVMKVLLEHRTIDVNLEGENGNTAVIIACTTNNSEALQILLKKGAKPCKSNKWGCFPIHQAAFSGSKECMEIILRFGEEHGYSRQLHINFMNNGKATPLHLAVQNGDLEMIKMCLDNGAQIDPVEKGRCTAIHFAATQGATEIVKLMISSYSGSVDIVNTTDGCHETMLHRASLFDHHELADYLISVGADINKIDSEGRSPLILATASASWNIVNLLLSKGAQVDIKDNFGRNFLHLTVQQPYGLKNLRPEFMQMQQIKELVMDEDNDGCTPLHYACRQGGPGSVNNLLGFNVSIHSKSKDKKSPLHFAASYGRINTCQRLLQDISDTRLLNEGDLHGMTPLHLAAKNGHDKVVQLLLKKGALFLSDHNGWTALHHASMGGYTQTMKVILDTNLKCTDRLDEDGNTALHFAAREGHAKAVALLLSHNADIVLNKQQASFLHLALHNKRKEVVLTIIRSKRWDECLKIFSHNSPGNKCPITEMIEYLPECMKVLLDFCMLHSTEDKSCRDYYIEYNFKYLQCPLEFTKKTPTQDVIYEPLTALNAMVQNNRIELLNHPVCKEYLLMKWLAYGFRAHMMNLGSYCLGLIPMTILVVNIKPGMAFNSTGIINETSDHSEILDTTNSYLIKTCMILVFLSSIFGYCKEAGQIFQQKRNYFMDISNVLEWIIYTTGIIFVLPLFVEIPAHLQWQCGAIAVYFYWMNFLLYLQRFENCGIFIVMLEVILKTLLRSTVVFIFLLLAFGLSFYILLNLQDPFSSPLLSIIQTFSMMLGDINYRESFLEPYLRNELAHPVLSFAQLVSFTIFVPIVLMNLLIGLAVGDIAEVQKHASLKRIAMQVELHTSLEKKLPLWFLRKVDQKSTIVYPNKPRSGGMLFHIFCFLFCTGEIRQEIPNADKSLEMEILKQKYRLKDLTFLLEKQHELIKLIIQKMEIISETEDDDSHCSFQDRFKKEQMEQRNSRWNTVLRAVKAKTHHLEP

CCCCCC(O)/C=C/C=O (stereo not shown) [4-hydroxy-nonenal]
activation of TRPA1 via covalent modification (TRPA1 [1]): activates TRPA1

C=CCS[S+]([O-])CC=C (stereo not shown) [allicin]
activation of TRPA1 (TRPA1 [1]; ref [5], [6]): activated

C=CCN=C=S [allyl isothiocyanate]
activation of TRPA1 via covalent modification (TRPA1 [1]): activates TRPA1
activation of TRPA1 (TRPA1 [1]; ref [5], [6]): activated

Cc1ccc(C(C)C)cc1O [carvacrol]
activation of TRPA1 by allosteric modulators (TRPA1 [1]): allosteric modulators

CN(C)CCCN1c2ccccc2Sc2ccc(Cl)cc21 [chlorpromazine]
activation of TRPA1 (TRPA1 [1]; ref [8]): activated

Oc1c(I)cc(Cl)c2cccnc12 [clioquinol]
activation of TRPA1 (TRPA1 [1]; ref [9]): activated

Clc1ccccc1C(c1ccccc1)(c1ccccc1)n1ccnc1 [clotrimazole]
activation of TRPA1 (TRPA1 [1]; ref [7]): activated

OO [hydrogen peroxide]
activation of TRPA1 via covalent modification (TRPA1 [1]): activates TRPA1

OCl [hypochlorite]
activation of TRPA1 via covalent modification (TRPA1 [1]): activates TRPA1

CC1CCC(C(C)C)C(O)C1 (stereo not shown) [menthol]
activation of TRPA1 by allosteric modulators (TRPA1 [1]): allosteric modulators

t-ProTx-I (S22A) (ECRYWLGGCSAGQTCCKHLVCARRHGWCVWDGTFS; ends and bridges not checked; also: membrane tether; UniProt P83480 1-35, looked up, variant S22A)
residue whose mutation to alanine reduces inhibition of TRPA1 (binding surface) (TRPA1 [2]): in common between the two binding surfaces
activity of t-ProTx-I alanine mutant against NaV1.2 / voltage-gated sodium channels (NaV1.2): strongly active
